Source: the NIST ThermoML archive (doi:10.1016/j.jct.2012.07.009)
Numbers after ± are expanded uncertainties.

Assay: an = ratio of the nth substance listed
Settings: 298.15 K, 101 kPa, Liquid, Vibrating tube method

## O=C1CNC(=O)CN1 [2,5-diketopiperazine] + O
a1 = 0.0025
  mass density: 998.08 ± 0.15 kg/m3
a1 = 0.0053
  mass density: 998.93 ± 0.15 kg/m3
a1 = 0.0101
  mass density: 1000.45 ± 0.15 kg/m3
a1 = 0.0134
  mass density: 1001.53 ± 0.15 kg/m3
a1 = 0.016
  mass density: 1002.32 ± 0.15 kg/m3

## NCC(=O)O [2-aminoacetic acid] + O
a1 = 0.1072
  mass density: 1039.03 ± 0.16 kg/m3
a1 = 0.1494
  mass density: 1051.67 ± 0.16 kg/m3
a1 = 0.1778
  mass density: 1060.02 ± 0.17 kg/m3
a1 = 0.2042
  mass density: 1068.38 ± 0.17 kg/m3
a1 = 0.2232
  mass density: 1074.06 ± 0.17 kg/m3
a1 = 0.2433
  mass density: 1080.28 ± 0.17 kg/m3

## O=C(O)CNCC(=O)O [N-(carboxymethyl)glycine] + O
a1 = 0.1079
  mass density: 1027.42 ± 0.16 kg/m3
a1 = 0.1403
  mass density: 1040.98 ± 0.16 kg/m3
a1 = 0.1768
  mass density: 1056.44 ± 0.17 kg/m3
a1 = 0.1982
  mass density: 1065.68 ± 0.17 kg/m3
a1 = 0.2153
  mass density: 1072.61 ± 0.17 kg/m3
a1 = 0.2301
  mass density: 1077.43 ± 0.17 kg/m3
